Reference: patent US11161856B2 (H. Lundbeck A/S, priority 2017, dated 2021)

Key:
Assay type in all cases: biochemical
MAGL = biological target: T1, MAGL (Homo sapiens, UniProt Q99685); test: In vitro competitive activity-based protein profiling (FP-Rh or HT-01 probe, gel-based); design: IC50 MGLL PC3 (Human, μM) / IC50 MGLL PFC (Human, μM): scale not given here; settings: for % Inh MGLL PFC (Human, μM): concentration not given (μM)
T1 construct: Proteomes (human prefrontal cortex or cell membrane fractions); from tissue
T1 sequence (Q99685 1-303): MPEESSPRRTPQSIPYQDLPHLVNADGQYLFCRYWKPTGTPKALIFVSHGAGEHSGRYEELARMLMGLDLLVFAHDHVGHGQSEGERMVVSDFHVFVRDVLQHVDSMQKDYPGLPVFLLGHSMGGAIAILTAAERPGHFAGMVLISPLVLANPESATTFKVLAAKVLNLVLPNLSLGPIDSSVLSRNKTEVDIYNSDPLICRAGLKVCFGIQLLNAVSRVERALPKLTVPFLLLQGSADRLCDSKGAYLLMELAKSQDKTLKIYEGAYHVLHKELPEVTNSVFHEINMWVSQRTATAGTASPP
Experimental: (§1) In Vitro Competitive Activity-Based Protein Profiling.
(§2) Proteomes (human prefrontal cortex or cell membrane fractions) (50 μL, 1.0 mg/mL total protein concentration) were preincubated with varying concentrations of inhibitors at 37° C. After 30 min, FP-Rh or HT-01 (1.0 μL, 50 μM in DMSO) was added and the mixture was incubated for another 30 min at room temperature. Reactions were quenched with SDS loading buffer (15 μL-4×) and run on SDS-PAGE.

ABHD6 = biological target: T2, ABHD6 (Mus musculus, UniProt Q8R2Y0); test: In vitro competitive activity-based protein profiling, mouse brain proteome (ABHD6); settings: mouse brain proteome; concentration not given (μM)
T2 construct: Brain; from tissue; host or cells: mouse brain proteome
T2 sequence (Q8R2Y0 1-336): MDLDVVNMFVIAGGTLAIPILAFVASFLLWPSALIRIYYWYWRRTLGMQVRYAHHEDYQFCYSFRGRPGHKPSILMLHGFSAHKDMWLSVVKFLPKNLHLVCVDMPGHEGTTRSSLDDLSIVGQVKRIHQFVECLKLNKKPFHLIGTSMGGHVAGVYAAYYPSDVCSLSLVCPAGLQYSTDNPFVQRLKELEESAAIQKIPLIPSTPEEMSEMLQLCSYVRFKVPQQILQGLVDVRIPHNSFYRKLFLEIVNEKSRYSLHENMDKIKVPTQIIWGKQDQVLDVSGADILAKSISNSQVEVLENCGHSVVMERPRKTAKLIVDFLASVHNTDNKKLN
Experimental: [The source words this procedure for another target and reports this target under the same test.] as §1, §2

MGLL = biological target: T3, MGLL (Mus musculus, UniProt O35678); test: In vitro competitive activity-based protein profiling, mouse brain proteome (MGLL); design: IC50 MGLL Brain (Mouse, μM): scale not given here; settings: for % Inh MGLL Brain (Mouse, μM): concentration not given (μM)
T3 construct: Brain; from tissue; host or cells: mouse brain proteome
T3 sequence (O35678 1-303): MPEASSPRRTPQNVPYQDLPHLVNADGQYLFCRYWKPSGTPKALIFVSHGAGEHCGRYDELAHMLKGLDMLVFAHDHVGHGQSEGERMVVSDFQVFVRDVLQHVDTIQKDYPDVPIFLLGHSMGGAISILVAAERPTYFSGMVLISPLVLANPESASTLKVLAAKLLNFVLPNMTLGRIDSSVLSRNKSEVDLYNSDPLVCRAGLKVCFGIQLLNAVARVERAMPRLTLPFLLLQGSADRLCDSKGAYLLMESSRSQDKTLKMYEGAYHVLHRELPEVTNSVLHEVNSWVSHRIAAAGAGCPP

[1] = prefrontal cortex (PFC) proteome

% Inh MGLL PFC (Human, μM) (MAGL; [1]) | % Inh ABHD6 Brain (Mouse, μM) (ABHD6) | % Inh MGLL Brain (Mouse, μM) (MGLL) | IC50 MGLL PC3 (Human, μM) (MAGL; PC3 cell proteome) | IC50 MGLL PFC (Human, μM) (MAGL; [1]) | IC50 MGLL Brain (Mouse, μM) (MGLL) | SMILES
### (### is ≥75%) | # (# is ≤25%) | ### (### is ≥75%) | – | – | – | O=C(O)CN1CC2CC1CN2c1cc(C(F)(F)F)ccc1CN1CCCC12CCN(C(=O)OC(C(F)(F)F)C(F)(F)F)CC2 (stereo not shown) [Example 126, 2-(5-{2-[(8-{[(1,1,1,3,3,3-Hexafluoropropan-2-yl)oxy]carbonyl}-1,8-diazaspiro[4.5]decan-1-yl)methyl]-5-(trifluoromethyl)phenyl}-2,5-diazabicyclo[2.2.1]heptan-2-yl)acetic acid]
### (### is ≥75%) | ## (## is between 25 and 75%) | – | – | – | – | CN(Cc1ccc(C(F)(F)F)cc1N1CCC(C(=O)O)C1)C1(C)CCN(C(=O)OC(C(F)(F)F)C(F)(F)F)CC1 (stereo not drawn) [Example 118, l-(2-(((1-(((1,1,1,3,3,3-Hexailuoropropan-2-yl)oxy)carbonyl)-4-methylpiperidin-4-yl)(methyl)amino)methyl)-5-(trifluoromethyl)phenyl)pyrrolidine-3-carboxylic acid]
– | – | – | * * * | * * * | – | O=C(O)CN1CC2CC1CN2c1cc(C(F)(F)F)ccc1CN1CCCC12CCN(C(=O)OC(C(F)(F)F)C(F)(F)F)CC2 (stereo not shown) [Example 6]
– | # (# is ≤25%) | ### (### is ≥75%) | – | – | – | CN(Cc1ccc(C(F)(F)F)cc1N1CCCC1)C1(C)CCN(C(=O)OC(C(F)(F)F)C(F)(F)F)CC1 [Example 72, 1,1,1,3,3,3-Hexafluoropropan-2-yl 4-methyl-4-(methyl(2-(pyrrolidin-1-yl)-4-(trifluoromethyl)benzyl)amino) piperidine-1-carboxylate]
– | # (# is ≤25%) | ### (### is ≥75%) | – | – | – | CC(=O)N1CCCC12CCN(c1cc(Cl)ccc1CN1CCN(C(=O)OC(C(F)(F)F)C(F)(F)F)CC1)CC2 [Example 204, 1,1,1,3,3,3-Hexafluoropropan-2-yl 4-(2-(1-acetyl-1,8-diazaspiro[4.5]decan-8-yl)-4-chlorobenzyl)piperazine-l-carboxylate]
– | # (# is ≤25%) | ### (### is ≥75%) | – | – | – | CC(=O)N1CCC2(CC1)CN(c1cc(C(F)(F)F)ccc1CN1CCN(C(=O)OC(C(F)(F)F)C(F)(F)F)CC1)C2 [Example 199, 1.1,1.3.3,3-Hexafluoropropan-2-yl 4-(2-(7-acetyl-2,7-diazaspiro[3.5]nonan-2-yl)-4-(trifluoromethyl)benzyl)pipera zine-l-carboxylate]
– | ### (### is ≥75%) | ### (### is ≥75%) | – | – | – | CC(=O)N1CCC2(CC1)CCN(c1cc(Cl)cc(CN3CCCC34CN(C(=O)OC(C(F)(F)F)C(F)(F)F)C4)c1)C2 [Example 236, 1,1,1,3,3,3-Hexafluoroprupan-2-yl 5-(3-(8-acetyl-2,8-diazaspiro[4.5]decan-2-yl)-5-chlorobenzyl)-2,5-diazaspiro[3.4]octane-2-carboxylate]
– | ### (### is ≥75%) | ### (### is ≥75%) | – | – | – | Cc1cc(N2CCOCC2)ccc1CN1CC2(CCN(C(=O)OC(C(F)(F)F)C(F)(F)F)CC2)C1 [Example 82, 1,1,1,3,3,3-Hexafluoropropan-2-yl 2-(2-methyl-4-morpholinobenzyl)-2,7-diazaspiro[3.5]nonane-7-carboxylate]
– | ### (### is ≥75%) | ### (### is ≥75%) | – | – | – | COc1ccc(CN2CC3(CCN(C(=O)OC(C(F)(F)F)C(F)(F)F)CC3)C2)cc1 [Example 85, 1,1,1,3,3,3-Hexafluoropropan-2-yl 2-(4-methoxybenzyl)-2,7-diazaspiro[3.5]nonane-7-carboxylate]
– | # (# is ≤25%) | ### (### is ≥75%) | – | – | – | CN(Cc1cc(N2CCCC2)cc(C(F)(F)F)c1)C1(C)CCN(C(=O)OC(C(F)(F)F)C(F)(F)F)CC1 [Example 76, 1,1,1,3,3,3-Hexafluoropropan-2-yl 4-methyl-4-(methyl(3-(pyrrolidin-1-yl)-5-(trifluoromethyl)bcnzyl)amino) piperidine-1-carboxylate]
– | # (# is ≤25%) | ### (### is ≥75%) | – | – | – | O=C(OC(C(F)(F)F)C(F)(F)F)N1CCC2(CCN(Cc3ccc(C(F)(F)F)cc3N3CC4CCC(C3)O4)CC2)C1 [Example 190, 1,1,1,3,3,3-Hexafluoropropan-2-yl 8-(2-(8-oxa-3-azabicyclo[3.2.1]octan-3-yl)-4-(trifluoromethyl)benzyl)-2,8-diazaspiro[4.5]decane-2-carboxylate]
– | ### (### is ≥75%) | ### (### is ≥75%) | – | – | * * * | CCN1CCCc2cccc(CN3CC4(CCN(C(=O)OC(C(F)(F)F)C(F)(F)F)CC4)C3)c21 [Example 16, 1,1,1,3,3,3-Hexafluoropropan-2-yl 2-((1-ethyl-1,2,3,4-tetrahydroquinolin-8-yl)methyl)-2,7-diazaspiro[3.5]nonane-7-carboxylate]
– | # (# is ≤25%) | ### (### is ≥75%) | – | – | – | O=C(OC(C(F)(F)F)C(F)(F)F)N1CCC2(CC1)CN(Cc1ccc(N3CCCC3)cc1)C2 [Example 80, 1,1,1,3,3,3-Hexafluoropropan-2-yl 2-(4-(pyrrolidin-1-yl)benzyl)-2,7-diazaspiro[3.5]nonane-7-carboxylate]
– | ### (### is ≥75%) | ### (### is ≥75%) | – | – | – | O=C(OC(C(F)(F)F)C(F)(F)F)N1CCC2(CC1)CN(Cc1ccccc1C(F)(F)F)C2 [Example 95, 1,1,1,3,3,3-Hexafluoropropan-2-yl 2-(2-(trifluoromethyl)benzyl)-2,7-diazaspiro[3.5]nonane-7-carboxylate]
– | ### (### is ≥75%) | ## (## is between 25 and 75%) | – | – | – | O=C(OC(C(F)(F)F)C(F)(F)F)N1CC2(CCN(Cc3cccc(Oc4ccccc4)c3)CC2)C1 [Example 64, 1,1,1,3,3,3-Hexafluoropropan-2-yl 7-(3-phenoxybenzyl)-2,7-diazaspiro[3,5]nonane-2-carboxylate]
– | ### (### is ≥75%) | ### (### is ≥75%) | – | – | – | O=C(OC(C(F)(F)F)C(F)(F)F)N1CCC2(CC1)CN(Cc1ccccc1N1CCOCC1)C2 [Example 96, 1,1,1,3,3,3-Hexafluoropropan-2-yl 2-(2-morpholinobenzyl)-2,7-diazaspiro[3,5]nonane-7-carboxylate]
– | ### (### is ≥75%) | ### (### is ≥75%) | – | – | – | O=C(OC(C(F)(F)F)C(F)(F)F)N1CCC2(CC1)CN(Cc1ccc(Cl)cc1N1CCOCC1)C2 [Example 39, 1,1,1,3,3,3-Hexafluoropropan-2-yl 2-(4-chloro-2-morpholinobenzyl)-2,7-diazaspiro[3.5]nonane-7-carboxylate]
– | # (# is ≤25%) | ### (### is ≥75%) | – | – | – | CN1CCC2(CCN(c3cc(C(F)(F)F)ccc3CN3CCN(C(=O)OC(C(F)(F)F)C(F)(F)F)CC3)CC2)C1 [Example 182, 1,1,1,3,3,3-Hexafluoropropan-2-yl 4-(2-(2-methyl-2,8-diazaspiro[4.5]decan-8-yl)-4-(trifluoromethyl)benzyl) piperazine-1-carboxylate]
– | # (# is ≤25%) | ## (## is between 25 and 75%) | – | – | – | CC(=O)N1CC2(CCN(c3ccccc3CN3CCCCC34CCN(C(=O)OC(C(F)(F)F)C(F)(F)F)CC4)C2)C1 [Example 229, 1,1,1,3,3,3-Hexafluoropropan-2-yl 1-(2-(2-acetyl-2,6-diazaspiro[3,4]octan-6-yl)benzyl)-1,9-diazaspiro[5.5]undecane-9-carboxylate]
